These results are taken from patent US20040176349A1, “Antibacterial composition” (priority 2001, published 2004).

One assay relates to E. faecalis 24592. As to the kind of experiment: MIC, microbroth dilution (NCCLS), Table 1. The following applies: compound alone; E. faecalis 24592, vancomycin-susceptible. It counts as cell-based. Here is the method:
(§1) The minimum inhibitory concentration (MIC) of the compounds was determined using the microbroth dilution technique in accordance with NCCLS guidelines, employing Mueller-Hinton broth (National Committee for Clinical Laboratory Standards, NCCLS, 1995 “Methods for dilution antimicrobial susceptibility tests for bacteria that grow aerobically”—approved standard M7-A5).
(§2) The compounds were tested in isolation, at different concentrations.
A general note: In broth dilution the organism is exposed to a series of concentrations in liquid medium.

The test system of a further assay is E. faecalis NCTC 5957. As to the kind of experiment: MIC, microbroth dilution (NCCLS), Table 1. It counts as cell-based. The following applies: compound alone; E. faecalis NCTC 5957, vancomycin-susceptible. Here is the method: as §1, §2
In another assay the test system is E. faecalis Phillips. As to the kind of experiment: MIC, microbroth dilution (NCCLS), Table 1. It is filed as cell-based. The following applies: compound alone; E. faecalis Phillips, vancomycin-susceptible. On the procedure:
as §1, §2

A further assay deals with E. faecalis SFZ. As to the kind of experiment: MIC, microbroth dilution (NCCLS), Table 1. It counts as cell-based. The following applies: compound alone; E. faecalis SFZ, vancomycin-susceptible. On the procedure: as §1, §2
The subject of the next assay is E. faecium NCTC 7171. As to the kind of experiment: MIC, microbroth dilution (NCCLS), Table 1. It counts as cell-based. The following applies: compound alone; E. faecium NCTC 7171, vancomycin-susceptible. Here is the method: as §1, §2
A further assay deals with E. hirae ATCC 10541. As to the kind of experiment: MIC, microbroth dilution (NCCLS), Table 1. It is filed as cell-based. Conditions: compound alone; E. hirae ATCC 10541, vancomycin-susceptible. Here is the method:
as §1, §2

A further assay deals with VRE 1662. As to the kind of experiment: MIC, microbroth dilution (NCCLS), Table 1. Conditions: compound alone; VRE 1662, vancomycin-resistant. It counts as cell-based, Enterococcus. Here is the method:
as §1, §2

The test system of another assay is VRE 300 1562. As to the kind of experiment: MIC, microbroth dilution (NCCLS), Table 1. It counts as cell-based, Enterococcus. The following applies: compound alone; VRE 300 1562, vancomycin-resistant. Here is the method: as §1, §2
Another assay concerns VRE 300 1590. As to the kind of experiment: MIC, microbroth dilution (NCCLS), Table 1. It is filed as cell-based, Enterococcus. Conditions: compound alone; VRE 300 1590, vancomycin-resistant. On the procedure:
as §1, §2

Another assay concerns VRE 300 2043. As to the kind of experiment: MIC, microbroth dilution (NCCLS), Table 1. It counts as cell-based, Enterococcus. The following applies: compound alone; VRE 300 2043, vancomycin-resistant. On the procedure: as §1, §2
The subject of the next assay is E. faecalis 5659 (vanA). As to the kind of experiment: Checkerboard microdilution MIC with PFOB, Table 2. Conditions: E. faecalis 5659 (vanA); alone. It counts as cell-based. The text has this: (§3) The aim of the study was to detect any synergy between PFOB and the other antibiotics. For the purposes of the study, synergy was defined in accordance with the FIC (fractional inhibitory concentration) index, as disclosed by Lorian (1991, In “Antibiotics in Laboratory Medicine” 3rd edition, Eds. Williams & Wilkins; esp. p 434-443). In essence, if the combination of test compounds gives at least a 4-fold reduction in the FIC value for each compound, then a synergy may be considered to exist (i.e. FIC of the combination <0.5=synergy; FIC 0.5-2.0=“indifference”; and FIC >2=antagonism).
(§4) In Table 2, results in the checkerboard indicating synergy are hatched, and specific optimum synergistic combinations are boxed.

For another assay, the system named is E. faecalis ATCC 29212. As to the kind of experiment: Checkerboard microdilution MIC with PFOB, Table 2. It counts as cell-based. The following applies: E. faecalis ATCC 29212; alone.
Description: as §3, §4

The subject of a further assay is E.faecalis 78097 (van B). As to the kind of experiment: Checkerboard microdilution MIC with PFOB, Table 2. It is filed as cell-based. Conditions: E.faecalis 78097 (van B); alone.
Description: as §3, §4

The subject of another assay is E. faecalis ATCC 10541. As to the kind of experiment: Checkerboard microdilution MIC with PFOB, Table 2. It is filed as cell-based. Conditions: E. faecalis ATCC 10541; alone. The source says: The aim of the study was to detect any synergy between PFOB and the other antibiotics. For the purposes of the study, synergy was defined in accordance with the FIC (fractional inhibitory concentration) index, as disclosed by Lorian (1991, In “Antibiotics in Laboratory Medicine” 3rd edition, Eds. Williams & Wilkins; esp. p 434-443).

In assay [1] the test system is E. faecalis SFZ (vancomycin-sensitive isolate, VSE). As to the kind of experiment: Time-kill experiment (viable count). It is filed as cell-based. The following applies: FIG. 2, ceftazidime alone at 128 mg/L, PFOB alone at 64 mg/L. The source says:
FIG. 2 is a graph of Log viable count (cfu per ml) against time (in hours) for the VSE isolate in the presence or absence of the drugs. […] The isolates used in the Example are purely illustrative and not especially unusual.

Assay [2] has as its system enterococcal penicillin binding proteins (PBPs). As to the kind of experiment: Radiolabelled penicillin competition assay for PBP affinity. The arrangement: species or system Enterococcus. Conditions: in words. Here is the method:
Further experiments were conducted in an attempt to determine the mechanism of the unexpected synergy between antibiotics (as exemplified by Ceftazidime) and compounds in accordance with general formula I or II (as exemplified by PFOB). The affinity of PFOB for enterococcal penicillin binding proteins (PBPs) was investigated using a conventional radiolabelling assay (Boulton & Orr 1983 “Detection of bacterial penicillin binding proteins and their role in the interpretation of the mode of action of beta-lactam antibiotics” In “Antibiotics: Assessment of antimicrobial activity and resistance” Eds. Denver & Quesnel. Society for […], Technical Series 18, pp161-182, Academic Press”). In this assay, the inner bacterial membrane containing the PBPs was extracted, exposed to differing concentrations of test agent (i.e. PFOB) and excess radiolabelled penicillin, followed by separation and visualisation of the PBPs using gel electrophoresis and fluorography.

Another assay relates to Enterococcus strains. As to the kind of experiment: MIC against Enterococcus strains, summary of Example 1. It counts as cell-based. Conditions: compound alone; all strains of Table 1; in words. Here is the method:
as §1, §2

In brackets after ≈: the same amount, converted by molar mass.

Broadly, the MIC is the lowest concentration that inhibits growth of the organism. Higher therefore signals weaker potency.

Regarding `C[C@@H](O)[C@H]1C(=O)N2C(C(=O)O)=C(C(C)(C)CCCN)O[C@H]12` [(1′R, 5R, 6R)-2-(4-amino-1,1-dimethylbutyl)-6-(1′-hydroxyethyl) oxapenem-3-carboxylic acid], the MIC in the assay with E. faecalis 24592 is 32 µg/mL (≈ 107 µM); in the assay on E. faecalis NCTC 5957, 32 µg/mL (≈ 107 µM); against E. faecalis Phillips, 32 µg/mL (≈ 107 µM); with E. faecalis SFZ, 64 µg/mL (≈ 215 µM); in the assay with E. faecium NCTC 7171 it was 16 µg/mL (≈ 53.6 µM); against E. hirae ATCC 10541, 16 µg/mL (≈ 53.6 µM). For the same compound, the minimal inhibitory concentration (MIC) against VRE 1662 was greater than 128 µg/mL; with VRE 300 1562, 128 µg/mL (≈ 429 µM); with VRE 300 1590, greater than 128 µg/mL; against VRE 300 2043, 32 µg/mL (≈ 107 µM). Further, the “MIC (alone) of PFOB” value in the assay with E. faecalis 5659 (vanA) is greater than 32 µg/mL; in the assay on E. faecalis ATCC 29212, greater than 32 µg/mL; with E.faecalis 78097 (van B), greater than 32 µg/mL; in the assay with E. faecalis ATCC 10541 it was 16 µg/mL. Besides, the “effect on growth (viable count, time-kill)” value in [1] is recorded as “some inhibitory effect on growth”. Further, the “affinity for PBPs compared with clavulanic acid” value in [2] (FIG. 4A versus FIG. 4B) is given as “much higher affinity”. Besides, the “binding to PBPs in competition with radiolabelled penicillin” value in [2] (FIG. 4A, PFOB concentration of 3 mg/L) is on record as “nearly all PBPs are bound by PFOB, except PBP3”. Also, in the assay with Enterococcus strains, the “activity in isolation against the Enterococcus strains tested” value was “no significant activity”.
